Assay [1] is described as follows: Inhibition of HCV NS3/4a protease using biotin-DDIVPCSMSY[125I]TW as substrate by radiometric assay. Also noted: species or system Hepacivirus hominis.
Assay [2] in a line: Binding affinity to HCV NS3/4a protease by isothermal titration calorimetry. The arrangement: species or system Hepacivirus hominis. (In general: In ITC the heat of successive injections is recorded.)

The term Ki denotes the dissociation constant of the complex between target and ligand, obtained from inhibition or displacement. By Kd is commonly meant the equilibrium constant for the complex coming apart. Lower therefore signals tighter binding.

As to `C=CC1C[C@@]1(NC(=O)[C@@H]1C[C@@H](Oc2cc(-c3ccccc3)nc3cc(OC)ccc23)CN1C(=O)[C@@H](NC(=O)OC(C)(C)C)C(C)(C)C)C(=O)O` (some centres undefined), the affinity in assay [1], expressed as Ki, was 20 nM. In assay [2], this molecule displayed a dissociation constant Kd of 19 nM.

With `C=CC1C[C@@]1(NC(=O)[C@@H]1C[C@@H](Oc2ccnc(-c3ccccc3)c2)CN1C(=O)[C@@H](NC(=O)OC(C)(C)C)C(C)(C)C)C(=O)O` (some centres undefined), in assay [2], the Kd is 830 nM.

Molecule `C=CC1C[C@@]1(NC(=O)[C@@H]1C[C@@H](Oc2cc(-c3ccccc3)nc3ccccc23)CN1C(=O)[C@H](CC)NC(=O)OC(C)(C)C)C(=O)O` (some centres undefined) had a Kd in assay [2] of 900 nM.

Regarding `C=CC1C[C@@]1(NC(=O)[C@@H]1C[C@@H](Oc2ccncc2)CN1C(=O)[C@@H](NC(=O)OC(C)(C)C)C(C)(C)C)C(=O)O` (some centres undefined), the affinity in assay [1], expressed as Ki, was 29000 nM. The Kd in assay [2] was 13500 nM.

Turning to `C=CC1C[C@@]1(NC(=O)[C@@H]1C[C@@H](Oc2cc(-c3ccccc3)nc3ccccc23)CN1C(=O)[C@H](C)NC(=O)OC(C)(C)C)C(=O)O` (some centres undefined), the dissociation constant (Kd) in assay [2] was found to be 2630 nM.

`C=CC1C[C@@]1(NC(=O)[C@@H]1C[C@@H](Oc2cc(-c3ccccc3)nc3ccccc23)CN1C(=O)[C@@H](NC(=O)OC(C)(C)C)C(C)C)C(=O)O` (some centres undefined) showed a Kd in assay [2] of 250 nM.

In the case of `C=CC1C[C@@]1(NC(=O)[C@@H]1C[C@@H](Oc2cc(-c3ccccc3)nc3ccccc23)CN1C(=O)[C@@H](NC(=O)OC(C)(C)C)C(C)(C)C)C(=O)O` (some centres undefined), the equilibrium dissociation constant (Kd) in assay [2] was determined as 100 nM.

In assay [1], `C=CC1C[C@@]1(NC(=O)[C@@H]1C[C@@H](Oc2ccnc3cc(OC)ccc23)CN1C(=O)[C@@H](NC(=O)OC(C)(C)C)C(C)(C)C)C(=O)O` (some centres undefined) registered a Ki of 50 nM. In assay [2], this molecule showed a Kd of 180 nM.

In the case of `C=CC1C[C@@]1(NC(=O)[C@@H]1C[C@@H](Oc2cc(-c3ccccc3)nc3ccccc23)CN1C(=O)CNC(=O)OC(C)(C)C)C(=O)O` (some centres undefined), the dissociation constant Kd in assay [2] is 77000 nM.

For `C=CC1C[C@@]1(NC(=O)[C@@H]1C[C@@H](Oc2ccnc3ccccc23)CN1C(=O)[C@@H](NC(=O)OC(C)(C)C)C(C)(C)C)C(=O)O` (some centres undefined), the Ki in assay [1] is 140 nM. Also, the Kd in assay [2] came out at 190 nM.

Values taken from ChEMBL document CHEMBL4680219, “Structure-thermodynamics-relationships of hepatitis C viral NS3 protease inhibitors” (Eur J Med Chem, 2020).
